One assay addresses T1, human recombinant HDAC6 (Homo sapiens, UniProt Q9UBN7).
T1 construct: purchased Calibiochem Co. (so in the source) 382180
T1 sequence (Q9UBN7 1-1215): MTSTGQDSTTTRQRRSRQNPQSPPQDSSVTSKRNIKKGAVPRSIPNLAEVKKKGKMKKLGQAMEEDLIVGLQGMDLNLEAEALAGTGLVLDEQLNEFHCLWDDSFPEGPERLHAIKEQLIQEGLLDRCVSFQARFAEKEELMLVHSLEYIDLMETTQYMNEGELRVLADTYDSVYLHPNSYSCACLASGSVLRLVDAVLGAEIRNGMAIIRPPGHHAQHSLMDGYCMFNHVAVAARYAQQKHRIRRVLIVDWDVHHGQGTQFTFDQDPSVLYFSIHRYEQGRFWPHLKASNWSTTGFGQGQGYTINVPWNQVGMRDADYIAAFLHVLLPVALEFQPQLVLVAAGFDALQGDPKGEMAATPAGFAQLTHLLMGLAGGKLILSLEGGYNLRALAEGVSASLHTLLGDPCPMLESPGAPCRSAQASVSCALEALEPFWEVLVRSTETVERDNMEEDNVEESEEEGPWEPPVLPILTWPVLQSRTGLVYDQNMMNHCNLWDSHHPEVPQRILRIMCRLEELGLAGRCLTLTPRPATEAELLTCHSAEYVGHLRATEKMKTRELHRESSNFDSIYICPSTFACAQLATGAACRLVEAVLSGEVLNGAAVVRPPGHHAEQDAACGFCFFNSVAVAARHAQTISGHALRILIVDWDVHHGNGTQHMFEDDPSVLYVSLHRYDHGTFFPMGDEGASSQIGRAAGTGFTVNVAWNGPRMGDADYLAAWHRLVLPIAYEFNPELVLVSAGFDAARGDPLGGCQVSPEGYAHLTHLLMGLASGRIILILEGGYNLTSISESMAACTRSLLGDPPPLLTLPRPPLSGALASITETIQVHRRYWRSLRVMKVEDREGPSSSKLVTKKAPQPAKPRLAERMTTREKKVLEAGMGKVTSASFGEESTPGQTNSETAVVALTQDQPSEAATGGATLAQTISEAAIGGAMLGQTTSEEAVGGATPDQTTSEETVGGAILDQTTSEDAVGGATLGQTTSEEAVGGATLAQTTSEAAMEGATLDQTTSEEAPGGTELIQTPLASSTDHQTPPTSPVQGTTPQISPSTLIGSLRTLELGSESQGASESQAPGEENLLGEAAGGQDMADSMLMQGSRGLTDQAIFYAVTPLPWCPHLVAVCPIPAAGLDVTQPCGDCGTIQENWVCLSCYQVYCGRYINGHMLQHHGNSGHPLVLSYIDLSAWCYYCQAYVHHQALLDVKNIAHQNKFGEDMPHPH
Put plainly: HDAC enzyme activity test, HDAC6. It is filed as biochemical. As to conditions: for Selectivity for HDAC6, HD1/HD6: ratio HDAC1 IC50 / HDAC6 IC50. The procedure:
(§1) Then, 0.3 μg of enzyme and 10 μM of substrate per well were added, reacted at 30° C. for 60 minutes. Thereto, Fluor de Lys® Developer II (BML-KI176) was added and reacted for 30 minutes. […] From the data, the respective IC50 were calculated by GraphPad Prism 4.0 program.

The target of a further assay is T2, HDAC7 (Homo sapiens, UniProt Q8WUI4).
T2 sequence (Q8WUI4 1-952): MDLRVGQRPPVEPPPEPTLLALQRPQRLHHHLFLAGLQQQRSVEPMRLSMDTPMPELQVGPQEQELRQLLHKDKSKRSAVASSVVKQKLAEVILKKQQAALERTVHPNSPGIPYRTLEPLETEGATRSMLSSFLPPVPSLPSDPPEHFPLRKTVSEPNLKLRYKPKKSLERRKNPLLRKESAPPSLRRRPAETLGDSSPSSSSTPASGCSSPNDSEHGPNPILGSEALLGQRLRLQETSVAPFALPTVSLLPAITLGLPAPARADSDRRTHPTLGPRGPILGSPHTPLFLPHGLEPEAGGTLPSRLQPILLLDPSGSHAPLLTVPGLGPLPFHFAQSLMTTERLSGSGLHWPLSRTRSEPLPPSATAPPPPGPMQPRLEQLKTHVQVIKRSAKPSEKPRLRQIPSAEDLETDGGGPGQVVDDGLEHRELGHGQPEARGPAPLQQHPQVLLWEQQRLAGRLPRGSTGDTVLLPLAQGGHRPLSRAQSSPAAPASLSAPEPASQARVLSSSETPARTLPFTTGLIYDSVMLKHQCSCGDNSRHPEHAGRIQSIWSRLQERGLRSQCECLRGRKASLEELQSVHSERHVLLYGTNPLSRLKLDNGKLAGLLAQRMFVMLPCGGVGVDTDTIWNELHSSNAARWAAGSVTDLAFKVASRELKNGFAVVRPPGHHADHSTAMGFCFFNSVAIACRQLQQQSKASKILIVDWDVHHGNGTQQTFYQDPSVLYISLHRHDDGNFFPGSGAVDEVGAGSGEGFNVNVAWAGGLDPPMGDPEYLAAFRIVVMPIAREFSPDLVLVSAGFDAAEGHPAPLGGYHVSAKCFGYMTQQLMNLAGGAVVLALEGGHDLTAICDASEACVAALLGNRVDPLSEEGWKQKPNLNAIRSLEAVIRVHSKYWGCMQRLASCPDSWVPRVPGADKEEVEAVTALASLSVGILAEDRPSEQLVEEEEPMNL
Put plainly: HDAC enzyme activity test, HDAC7. It is filed as biochemical. The procedure:
as §1

The mark [1] stands for this setting: Table 11, eleven HDAC isozymes, read-out: Inhibition ability (IC50) against HDAC6.
Where [2] appears, read: Table 12, read-out: Inhibition ability (IC50) HDAC6.

Like-named read-outs stand apart in the source and are kept apart here.

By IC50 is commonly meant the point on the concentration scale where inhibition reaches its midpoint.

As for `CN1CCN(C(=O)N(CCCCCCC(=O)NO)c2ccc(-c3ccc4cnn(C)c4c3)cc2)CC1` [CKD-581, reference compound], the concentration for half-maximal inhibition (IC50) on human recombinant HDAC6 (setting [1]) stood at 2.39 nM; on HDAC7 (Table 11, eleven HDAC isozymes, read-out: Inhibition ability (IC50) against HDAC7), 10.7 nM.

Regarding `O=C(NO)c1ccc(Cn2c3c(c4ccccc42)C(=O)C(CN2CCOCC2)CC3)cc1` (centres unmarked) [Compound 87, N-hydroxy-4-((3-(morpholinomethyl)-4-oxo-1,2,3,4-tetrahydrocarbazol-9-yl)methyl)benzamide], the IC50 is 13.1 nM at human recombinant HDAC6 (setting [1]); 7.45 nM on human recombinant HDAC6 (setting [2]); 13 nM on human recombinant HDAC6 (data of Table 11, read-out: IC50 against HDAC6); 3280 nM on HDAC7. Besides, the “Selectivity for HDAC6, HD1/HD6” value on human recombinant HDAC6 (Table 12) came to 411.8. Moreover, the “selectivity for HDAC6 over HDAC1” value at human recombinant HDAC6 (from the data of Table 11) is “more than 800 times”.

In the case of `CN1CCN(CC2CCc3c(c4cc(F)ccc4n3Cc3ccc(C(=O)NO)cc3)C2=O)CC1` (centres unmarked) [Compound 142, 4-((6-fluoro-3-((4-methylpiperazin-1-yl)methyl)-4-oxo-1,2,3,4-tetrahydrocarbazol-9-yl)methyl)-N-hydroxybenzamide], the IC50 on human recombinant HDAC6 (setting [1]) amounted to 3.55 nM; at human recombinant HDAC6 (setting [2]), 4.7 nM; on HDAC7, 4530 nM. At human recombinant HDAC6 (Table 12), the “Selectivity for HDAC6, HD1/HD6” value came to 568.3.

`CC1(C)CC(=O)c2c(C(F)(F)F)nn(Cc3ccc(C(=O)NO)cc3)c2C1` [Compound 237, 4-((6,6-dimethyl-4-oxo-3-(trifluoromethyl)-4,5,6,7-tetrahydro-1H-indazol-1-yl)methyl)-N-hydroxybenzamide]: the half-maximal inhibitory concentration (IC50) at human recombinant HDAC6 (setting [1]) was 32.2 nM; on human recombinant HDAC6 (setting [2]) it was 17.8 nM. Besides, at human recombinant HDAC6 (Table 12), the “Selectivity for HDAC6, HD1/HD6” value turned out to be 219.3. Besides, on human recombinant HDAC6 (from the data of Table 12), the “selectivity for HDAC6 over HDAC1” value is “more than 219 times”.

Turning to `O=C(NO)c1ccc(Cn2c3c(c4ccccc42)C(=O)N(CCN2CCOCC2)CC3)cc1` [Compound 249, N-hydroxy-4-((2-(2-morpholinoethyl)-1-oxo-1,2,3,4-tetrahydropyrido[4,3-b]indol-5-yl)methyl)benzamide], the IC50 is 5.09 nM on human recombinant HDAC6 (setting [1]), 21.3 nM on human recombinant HDAC6 (setting [2]) and 3420 nM on HDAC7. For the same compound, the “Selectivity for HDAC6, HD1/HD6” value at human recombinant HDAC6 (Table 12) stood at 162.2.
